Legend:
[1] = Cytotoxicity against uninfected PHA-stimulated human peripheral blood mononuclear (PBM) cells was determined.; format: cell-based
[2] = Antiviral activity was evaluated in mitogen-stimulated human peripheral blood mononuclear (PBM) cells infected with HIV-1 strain LAV.; format: functional
CCRF-CEM [3] = experiment: Cytotoxicity against uninfected PHA-stimulated CEM cells was determined.; format: cell-based; details: Homo sapiens
Vero [4] = experiment: Cytotoxicity against uninfected PHA-stimulated vero cells was determined.; format: cell-based; details: Chlorocebus sabaeus
CCRF-CEM [5] = experiment: Cytotoxicity against uninfected PHA-stimulated CEM cells was determined; format: cell-based; details: Homo sapiens
[6] = Antiviral activity was evaluated in mitogen-stimulated human peripheral blood mononuclear (PBM) cells infected with HIV-1 strain LAV; format: functional
Vero [7] = experiment: Cytotoxicity against uninfected PHA-stimulated vero cells was determined; format: cell-based; details: Chlorocebus sabaeus
[8] = Cytotoxicity against uninfected PHA-stimulated human peripheral blood mononuclear (PBM) cells was determined; format: cell-based

EC50 [2] [µM] | EC50 [6] [µM] | Compound | IC50 [1] [µM] | IC50 (CCRF-CEM [3]) [µM] | IC50 (Vero [4]) [µM] | IC50 (CCRF-CEM [5]) [µM] | IC50 (Vero [7]) [µM] | IC50 [8] [µM]
39.9 |  | Nc1nc(Cl)nc2c1ncn2[C@@H]1CO[C@@H](CO)O1 | > 100 | > 100 | > 100 |  |  | 
22.8 |  | OC[C@@H]1OC[C@H](n2cnc3c(Cl)ncnc32)O1 | > 100 | > 100 | > 100 |  |  | 
40 |  | CNc1nc(Cl)nc2c1ncn2[C@H]1CO[C@@H](CO)O1 | > 100 | > 100 | > 100 |  |  | 
1.7 |  | Nc1nc(Cl)nc2c1ncn2[C@H]1CO[C@@H](CO)O1 | > 100 | > 100 | > 100 |  |  | 

The remaining lines, values behind:

Compound | EC50 [2] [µM] | EC50 [6] [µM] | IC50 [1] [µM] | IC50 (CCRF-CEM [3]) [µM] | IC50 (Vero [4]) [µM] | IC50 (CCRF-CEM [5]) [µM] | IC50 (Vero [7]) [µM] | IC50 [8] [µM]
OC[C@@H]1OC[C@@H](n2cnc3c(Cl)ncnc32)O1 | 11.1 |  | > 100 | 57.6 | > 100 |  |  | 
CSc1ncnc2c1ncn2[C@H]1CO[C@@H](CO)O1 |  | 25.1 |  |  |  | > 100 | > 100 | > 100
OC[C@@H]1OC[C@H](n2cnc3c(S)ncnc32)O1 | 26.5 |  | > 100 | > 100 | > 100 |  |  | 
Nc1nc2c(ncn2[C@H]2CO[C@@H](CO)O2)c(=O)[nH]1 |  | 0.03 |  |  |  | > 100 | > 100 | > 100
Cc1cn([C@H]2C[C@H](N=[N+]=[N-])[C@@H](CO)O2)c(=O)[nH]c1=O [ZIDOVUDINE] | 0.004 |  | > 100 | 30.9 |  |  |  | 

Source: ChEMBL document CHEMBL1126672, “1,3-dioxolanylpurine nucleosides (2R,4R) and (2R,4S) with selective anti-HIV-1 activity in human lymphocytes” (J Med Chem, 1993)
